Assay results taken from US20130096138A1, “NOVEL THIOUREA OR UREA DERIVATIVE, PREPARATION METHOD THEREOF, AND PHARMACEUTICAL COMPOSITION FOR PREVENTING OR TREATING AIDS, CONTAINING SAME AS ACTIVE INGREDIENT” (AVIXGEN INC., priority 2010, published 2013).

These compounds were tested on HIV (assay: Assay for inhibitory activity against HIV (p24 ELISA, infected MT-4 cells)). Details: Human immunodeficiency virus 1, MT4, MT-4 cells infected with pNL4-3-derived HIV, 48 hrs + additional 48 hrs culture, read-out: Conc. for Inhibition of HIV Activity (IC50).
Format: cell-based
Protocol: The thiourea or urea derivatives of the present invention were assayed for inhibitory activity against HIV as follows.
A pNL4-3 vector carrying an HIV genome was transduced into 293FT cells. […] 293FT cells were seeded at a density of 3.0×10^5 cells/well into 6-well plates containing antibiotic-free DMEM supplemented with 10% FBS and grown for 48 hrs. Upon 90˜95% confluency, the transduction was performed.
The DNA (pNL4-3) was added at a final concentration of 10 ng/mL to 250 μL of the reduced serum medium Opti-MEM I (GIBCO™, USA). Separately, 4 μL of Lipofectamine™ 2000 (Invitrogen, USA) was mixed with 250 μL of Opti-MEM I (GIBCO™), and incubated at room temperature for 5 min. The DNA (pNL4-3) was mixed at a ratio of 1:2 with the lipofectamine and reacted at room temperature for 20 min to form a DNA-lipofectamine complex. After removal of the medium from the cell culture, the DNA-lipofectamine complex was added to the cells and incubated for 4 hrs in a CO2 incubator. Then, the cell culture medium was replaced with a fresh antibiotic-free, 10% FBS-supplemented DMEM, followed by incubation for an additional 48 hrs. The HIV-infected cell culture was centrifuged at 1,500 rpm for 5 min to give a virus supernatant.
MT-4 cells were plated at a density of 1.0×10^6 cells/mL into 6-well plates containing RPMI supplemented with 10% FBS, and incubated for 4 hrs before infection at a ratio of 1:1 with the virus supernatant. The cells were incubated for 48 hrs in a CO2 incubator, after which the culture medium was replaced with a fresh one. Again, incubation was continued for an additional 72 hrs to amplify the virus. After centrifugation at 1,500 rpm for 5 min, the virus supernatant thus obtained was examined for virus density using a Virononstika HIV-1 Antigen Microelisa system kit (bioMerieux, Inc. Netherland).
2. Assay for Inhibitory Activity against HIV
The thiourea or urea derivatives prepared in Examples 1 to 94 were dissolved in DMSO to prepare respective 10 mM or 20 mM stocks, and stored at −20° C. The stocks were diluted to a starting concentration of 200 μM in DMSO before use in experiments.
MT-4 cells were suspended at a density of 4×10^5 cells in 200 μL of RPMI 1640 (Gibco, 10% FBS) per well of 24-well plates, and infected with 200 μL of a virus supernatant containing 2×10^5 pg/mL to give a total volume of 400 μL. After the stocks of the thiourea or urea derivatives were […] to 200 μM in DMSO, 2 μL of each dilution was added to the cells to a final concentration of 1 μM or less. For a positive control, 10 μM AZT (azidothymidine,Sigma, USA) was used at a final concentration of 50 nM while DMSO was used at a final concentration of 0.5% as a negative control. The cells were cultured for 48 hrs in a CO2 incubator (37° C., 5% CO2), and the culture medium was replaced by RPMI 1640 containing the thiourea or urea derivative at a final concentration of 1 μM, followed by incubation for an additional 48 hrs. Virus soups were separated from cells by centrifugation at 1,500 rpm for 5 min and then at 13,000 rpm for 5 min. ELISA for p24 concentrations was carried out using a Virononstika HIV-1 Antigen Microelisa system kit (bioMerieux, Inc. Netherland) to determine the inhibitory activity of each of the thiourea or urea derivatives against HIV.

Point of comparison: `CC(C)(C)c1ccc(C(=O)NC(=S)Nc2cccc(Cl)c2)cc1` [Example 38, 1-(4-tert-butyl-benzoyl)-3-(3-chloro-phenyl)-thiourea], IC50 300 nM. Against it:
- CC(C)(C)c1ccc(C(=O)NC(=S)Nc2ccccn2)cc1 [Example 37, 1-(4-tert-butyl-benzoyl)-3-(pyridin-2-yl)-thiourea] — 1.7-fold higher, 500 nM
- CC(C)(C)c1ccc(C(=O)NC(=S)Nc2cccc3c(O)cccc23)cc1 [Example 1, 1-(4-tert-Butyl-benzoyl)-3-(5-hydroxy-naphthalen-1-yl)-thiourea] — 10-fold lower, 30 nM
- CC(C)(C)c1ccc(C(=O)NC(=S)NC2CCCCC2)cc1 [Example 16, 1-(4-tert-butyl-benzoyl)-3-cyclohexyl-thiourea] — 1.7-fold higher, 500 nM
- CC(C)(C)c1ccc(C(=O)NC(=S)Nc2cccc3ncccc23)cc1 [Example 50, 1-(4-tert-butyl-benzoyl)-3-(quinolin-5-yl)-thiourea] — 3.3-fold higher, 1000 nM
